# Legend:
# Mu89 tumors = assay: TSP-1 immunostaining of tumor sections; format: in vivo, SCID mice; details: losartan treatment
# Text: (§1) TSP-1 is a key regulator of TGF-β1 activation and losartan has been reported to reduce TSP-1 expression and TGF-β1 activation in mouse models of Marfan's syndrome and muscular dystrophy (Dietz H C (2010) J Clin Invest 120:403-407). […] In both Mu89 and HSTS26T tumors the immunostaining patterns for TSP-1 (FIGS. 7A-7B) and collagen I (FIGS. 5C-5D) were closely matched. The inventors detected high levels of TSP-1 and collagen I in the tumor margin, while losartan induced obvious reductions in TSP-1 and collagen I levels in the tumor center (FIGS. 5C, 7A).
# (§2) Frozen sections were cut into 10 μm sections for immunohistochemistry and imaging. Collagen I was detected using the LF-67 antibody (1:100 dilution) with a previously described protocol (Znati C A, et al. (2003) Clin Cancer Res 9:5508-5513). TSP-1 was detected with a goat anti-human antibody (1:50 dilution), which cross-reacts with mice (sc-12312, Santa Cruz Biotechnology Inc., Santa Cruz, Calif.). For collagen and TSP-1 analysis, images at 20× magnification were taken randomly from each slide. The collagen and TSP-1 content was determined by measuring the number of pixels above a threshold value that was set based on the average intensity value of pixels from all slides under analysis. The background-signal intensity for both collagen I and thrombospondin-1 immunostaining was low and uniform.
# HSTS26T tumors [1] = assay: TSP-1 immunostaining of tumor sections; format: in vivo, SCID mice; details: losartan treatment
# Text: as §1, §2
# E0771 breast tumors = assay: Breast tumor growth and survival studies; format: in vivo, mice
# Method: Breast tumor growth and survival studies: Mice bearing orthotopic E0771 or 4T1 breast tumors were split into treatment groups, time-matched for time after implantation and size-matched for tumor volume at this time (110-111 mm^3 in E0771, in 4T1). […] The primary tumors were then measured every 2 days, beginning on day 0, using calipers. Tumor growth was quantified using the time for each to reach double its initial volume Animal survival was quantified based on time of death after initiation of treatment or time to reach excessive tumor burden (>1000 mm^3).
# HSTS26T tumors [2] = assay: Protein levels in homogenized tumors (ELISA); format: in vivo, mice
# Text: Tumors were excised after two weeks of treatment, homogenized and analyzed for total and activated TGF-β1 levels by ELISA.
# E0771 tumors = assay: Hypoxic fraction by pimonidazole staining; parameters: species or system mice; details: mouse, in vivo
# Method: Losartan decreases the hypoxic fraction in E0771 tumors (P=0.027, Student's t-test) due to the increase in oxygen delivery.
# Oxygenation was then studied using phosphorescence quenching microscopy. […] This decrease in tumor hypoxia was confirmed by using pimonidazole staining (FIGS. 29D and 30). To determine if losartan also increases nanomedicine delivery, which is dependent on both vascular supply and penetration across vessel walls into tumor tissue, nanoparticle penetration was measured using intravital multiphoton microscopy. Nanoparticle penetration rates were quantified as transvascular mass flux per unit vascular surface area and transvascular concentration difference, termed as the effective permeability. […] Penetration rates are largely dependent on fluid flow through the viscoelastic and tortuous tumor interstitium, which is a function of interstitial hydraulic conductivity. It was determined that losartan also increases the hydraulic conductivity of E0771 tumors (FIG. 31), likely through its anti-matrix effects, and a mathematical model (Chauhan V P, et al., Nature Nanotechnology. 2012; advance online publication) was used to confirm that this can improve the penetration rate of all sizes of nanomedicines (FIG. 32). Thus, “microenvironmental normalization” with ARBs and ACE-Is increases the delivery of oxygen and all sizes of therapeutics to tumors. […]
# [3] = 15 mg/kg/day in drinking water, two weeks
smiles,measurement,setting,value
CCCCc1nc(Cl)c(CO)n1Cc1ccc(-c2ccccc2-c2nn[nH]n2)cc1 [losartan],decrease in TSP-1 immunostaining,Mu89 tumors,24%
same,decrease in TSP-1 immunostaining,HSTS26T tumors [1],73%
same,tumor growth rate,E0771 breast tumors; agent given alone (losartan 40 mg/kg daily or doxorubicin 2 mg/kg every three days),no significant effect
same,median survival,"E0771 breast tumors; combination of losartan and doxorubicin, saline alone 12 days",23.5 days
same,survival,E0771 breast tumors; losartan alone,did not shorten survival
same,tumor growth,E0771 breast tumors; losartan in combination with doxorubicin,significantly delayed
same,reduction in TSP-1,HSTS26T tumors [2]; [3],3.5 fold
same,reduction in active TGF-β1,HSTS26T tumors [2]; [3],4 fold
same,reduction in collagen 1,HSTS26T tumors [2]; [3],two fold reduction
same,total TGF-β1 levels,HSTS26T tumors [2]; homogenized tumors,did not affect
same,hypoxic fraction,E0771 tumors,decreases
